Measured values from patent publication US20080305536A1, “Method for Culturing Microorganisms” (priority 2005, published 2008).

Test system: NCIMB 11955
Conditions: USM, 1% glucose, 60° C., 250 rpm, grown for 36 hours; flasks with 0, 1, 2, 3 or 4% ethanol; FIG. 1
Method: Ethanol tolerance of a wild-type organism (NCIMB 11955) was tested in order to determine the starting point. The organism was grown overnight (LB agar plate, 60° C.) and a colony used to inoculate an overnight culture (100 mL USM, 1% glucose, 60° C., 250 rpm). This culture was then used to inoculate a triplicate series of flasks containing 0, 1, 2, 3, or 4% ethanol which were then grown for 36 hours before the growth was measured (50 mL USM, 1% glucose, 60° C., 250 rpm).

## CCO [ethanol]
  ethanol concentration tolerated (growth measured): ≤ 4%
